Source: PMC4607647 (Bioorganic & medicinal chemistry letters, 2015)

Experiments:
Type in all cases: biochemical
GFP-WT-PARP10 = biological target: T1, GFP-WT-PARP10 (Homo sapiens, UniProt Q53GL7); details: up to 100 μM; immunoprecipitated from HEK 293T cells, 6-alkyne-NAD+ substrate
T1 sequence (Q53GL7 1-1025): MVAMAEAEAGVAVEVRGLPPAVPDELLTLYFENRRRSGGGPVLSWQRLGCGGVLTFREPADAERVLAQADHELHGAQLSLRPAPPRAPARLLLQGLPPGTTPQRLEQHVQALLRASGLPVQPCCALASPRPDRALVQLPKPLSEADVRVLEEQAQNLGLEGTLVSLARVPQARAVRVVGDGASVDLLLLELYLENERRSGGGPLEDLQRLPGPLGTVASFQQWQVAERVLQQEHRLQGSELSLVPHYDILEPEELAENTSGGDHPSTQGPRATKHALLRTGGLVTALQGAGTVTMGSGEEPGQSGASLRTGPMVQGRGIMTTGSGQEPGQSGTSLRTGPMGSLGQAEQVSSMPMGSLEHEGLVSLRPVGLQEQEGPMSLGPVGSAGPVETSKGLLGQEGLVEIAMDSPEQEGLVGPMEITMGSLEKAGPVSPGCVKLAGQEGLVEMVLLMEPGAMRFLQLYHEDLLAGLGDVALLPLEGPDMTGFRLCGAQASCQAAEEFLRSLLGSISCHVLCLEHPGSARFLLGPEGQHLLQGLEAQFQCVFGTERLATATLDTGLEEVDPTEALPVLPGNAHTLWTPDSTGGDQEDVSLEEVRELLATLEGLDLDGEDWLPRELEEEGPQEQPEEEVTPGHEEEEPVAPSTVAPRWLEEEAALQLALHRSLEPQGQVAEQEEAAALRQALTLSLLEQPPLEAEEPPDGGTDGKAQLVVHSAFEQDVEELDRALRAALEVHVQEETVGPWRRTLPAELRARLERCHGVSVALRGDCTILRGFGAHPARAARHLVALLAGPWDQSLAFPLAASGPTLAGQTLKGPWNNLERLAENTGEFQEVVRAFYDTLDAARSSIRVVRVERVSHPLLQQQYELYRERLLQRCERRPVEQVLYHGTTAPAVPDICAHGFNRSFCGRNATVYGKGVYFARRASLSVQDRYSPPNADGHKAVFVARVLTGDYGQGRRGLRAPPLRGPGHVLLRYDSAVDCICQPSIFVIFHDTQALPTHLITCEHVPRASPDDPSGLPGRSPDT

GFP-LG-PARP10 = GFP-LG-PARP10 (Homo sapiens, UniProt Q53GL7, L926G); details: immunoprecipitated from HEK 293T cells, 6-alkyne-NAD+ substrate
LG-PARP10cat = LG-PARP10cat (Homo sapiens, UniProt Q53GL7, L926G); details: for increase in potency against LG-PARP10cat compared to 1: compared to parent dq scaffold 1
LG-PARP10cat, sequence (Q53GL7 806-1025 L926G): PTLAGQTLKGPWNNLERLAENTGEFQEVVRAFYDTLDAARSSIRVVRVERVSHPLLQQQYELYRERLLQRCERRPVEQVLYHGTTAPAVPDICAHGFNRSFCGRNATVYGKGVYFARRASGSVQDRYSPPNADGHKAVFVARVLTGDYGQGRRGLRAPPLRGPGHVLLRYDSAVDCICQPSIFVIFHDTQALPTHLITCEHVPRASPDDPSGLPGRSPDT

GFP-LG-PARP10, sequence (Q53GL7 whole entry L926G): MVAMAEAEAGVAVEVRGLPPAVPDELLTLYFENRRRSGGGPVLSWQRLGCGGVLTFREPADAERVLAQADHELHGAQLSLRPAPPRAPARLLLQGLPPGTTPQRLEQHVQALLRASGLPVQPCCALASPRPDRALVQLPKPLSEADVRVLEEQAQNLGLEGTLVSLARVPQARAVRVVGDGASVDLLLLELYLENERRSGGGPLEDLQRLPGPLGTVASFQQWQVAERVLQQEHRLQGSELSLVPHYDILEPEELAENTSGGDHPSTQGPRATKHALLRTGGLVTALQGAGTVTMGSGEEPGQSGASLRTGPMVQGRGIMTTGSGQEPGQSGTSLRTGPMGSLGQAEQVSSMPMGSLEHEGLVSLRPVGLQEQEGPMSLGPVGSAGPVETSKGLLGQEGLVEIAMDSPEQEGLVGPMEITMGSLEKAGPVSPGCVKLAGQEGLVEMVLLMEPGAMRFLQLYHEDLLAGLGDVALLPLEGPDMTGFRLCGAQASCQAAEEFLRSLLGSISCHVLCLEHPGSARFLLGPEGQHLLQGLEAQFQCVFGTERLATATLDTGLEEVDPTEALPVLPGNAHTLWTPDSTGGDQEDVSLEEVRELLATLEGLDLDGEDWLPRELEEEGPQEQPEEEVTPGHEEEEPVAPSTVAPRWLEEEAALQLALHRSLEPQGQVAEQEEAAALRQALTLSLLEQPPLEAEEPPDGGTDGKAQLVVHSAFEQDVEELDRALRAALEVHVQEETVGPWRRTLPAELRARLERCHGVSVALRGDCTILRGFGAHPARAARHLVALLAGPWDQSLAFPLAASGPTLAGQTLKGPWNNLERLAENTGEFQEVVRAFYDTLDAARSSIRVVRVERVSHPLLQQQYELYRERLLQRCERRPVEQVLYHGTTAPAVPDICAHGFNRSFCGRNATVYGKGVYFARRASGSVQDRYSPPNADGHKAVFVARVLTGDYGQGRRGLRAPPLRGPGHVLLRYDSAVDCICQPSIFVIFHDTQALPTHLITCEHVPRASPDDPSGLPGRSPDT

| SMILES | effect on auto-ADP-ribosylation of GFP-WT-PARP10 (GFP-WT-PARP10) | inhibition of auto-ADP-ribosylation of GFP-LG-PARP10 (GFP-LG-PARP10) | selectivity for LG-PARP10cat versus WT-PARP10cat (LG-PARP10cat; LG- versus WT-PARP10cat) | increase in potency against LG-PARP10cat compared to 1 (LG-PARP10cat) |
| --- | --- | --- | --- | --- |
| O=C1NCCc2ccc(Br)cc21 [Compound 4, 7-Br-dq] | unaffected | inhibited the auto-ADP-ribosylation of GFP-LG-PARP10 in a dose-dependent manner | greater than 10 fold | – |
| Cc1ccc2c(c1)C(=O)NCC2 [Compound 5] | – | – | – | did not exhibit increased potency |
| O=C1NCCc2ccc(C(F)(F)F)cc21 [Compound 6] | – | – | – | 2 fold |
| O=C1NCCc2ccc(O)cc21 [Compound 7] | – | – | – | did not exhibit increased potency |
| COc1ccc2c(c1)C(=O)NCC2 [Compound 8] | – | – | – | did not exhibit increased potency |
